From patent US20110110916A1, “METHODS FOR TREATING AND/OR PREVENTING CARDIOMYOPATHIES BY ERK OR JNK INHIBITION” (priority 2008, published 2011)
Entries after “also recorded” stand apart in the source; their conditions may differ.

Assays:
[1] = system: ERK1/2; assay: Immunoblot of phosphorylated ERK1/2 versus total ERK1/2 in hearts of treated mice; assay type: in vivo, mouse
Protocol: Hearts were excised from mice at 16-weeks of age and were homogenized in RIPA extraction buffer (Cell Signalling) containing protease inhibitors (25 […]). Protein samples were subjected to SDS-PAGE, transferred to nitrocellulose membranes and blotted with primary antibodies against ERK1/2 (Santa-Cruz), phosphorylated ERK1/2 (Cell Signaling), JNK (Santa-Cruz), natriuretic peptide precursor A (Santa-Cruz), phosphorylated JNK (Cell Signaling), and Gapdh (Ambion). Secondary antibodies were HRP-conjugated (Amersham). Recognized proteins were visualized by enhanced chemiluminescence (ECL, Amersham). The signal generated using an antibody against Gapdh was used as internal controls to normalize the amounts of protein between immunoblots.
We assessed the efficacy of the chemical entities in inhibiting their targets in the heart by immunoblot using anti-total ERK1/2 (Santa Cruz) and anti-pERK1/2 (Cell Signaling) antibodies.
Proteins were loaded on 10% SDS gels and electrotransferred on a […] pore size nitrocellulose membrane (Invitrogen). We used antibodies directed against phosphorylated ERK1/2 (Cell Signaling, 1:1,000), total ERK1/2 (Santa Cruz, 1:2,000), phosphorylated JNK (Cell Signaling, 1:1,000) and total JNK (Santa Cruz, 1:200). The secondary antibodies were coupled to horseradish-peroxydase (Amersham). Recognized proteins were visualized by enhanced chemiluminescence (SuperSignal® West Pico chemiluminescent substrate, Thermo Scientific).

[2] = system: Lmna^H222P/H222P mice; assay: Transthoracic echocardiography at 20 weeks of age, PD98059 or SP600125 from 16 to 20 weeks; assay type: in vivo, mouse; details: for LVESD compared to DMSO-treated mice: 3 mg/kg/day; for FS and EF: after 4 weeks of treatment; for HR: heart rate; for further deterioration in cardiac function: treated from 16 to 20 weeks of age
Protocol: Using the methods described in Example 2, we treated Lmna^H222P/H222P mice with PD98059 alone or SP600125 alone, starting at 16 weeks of age, when ejection fraction has already deteriorated and left ventricular end diastolic diameter is increased, until 20 weeks of age.
SP600125, an anthrapyrazolone inhibitor of JNK, and PD98059, a 2′-amino-3′-methoxyflavone MAPK/ERK kinase (MEK) ½ inhibitor, (Calbiochem) were dissolved in dimethyl sulfoxide (DMSO) (Sigma) at a concentration of 1 mg/ml and were delivered to a dose of 3 mg/kg/day for 5 days a week. The placebo control consisted of DMSO alone and was delivered in the same volume. Placebo and inhibitors were administered by intraperitoneal injection using a 27⅝-gauge syringe. Treatments were started when mice were 16 weeks of age and continued until 20 weeks of age or when the mice were 19 weeks and continued until 24 weeks of age.
At 20 weeks or 24 weeks of age, mice were anesthetized with 1.5% isoflurane in O2 and placed on a heating pad (37° C.). Cardiac function was assessed by echocardiography with a Visualsonics Vevo 770 ultrasound with a 30 MHz transducer applied to the chest wall. Cardiac ventricular dimensions and fractional shortening (FS) were measured in 2D mode and M-mode three times in a modified short axis view for the number of animals indicated. A “blinded” echocardiographer (J.S.), unaware of the genotype or treatment, performed the examinations.
We assigned male Lmna^H222P/H222P mice 16 weeks of age to 3 different treatment arms (placebo DMSO, n=28; MEK1/2 inhibitor PD98059, n=22; JNK inhibitor SP600125, n=29) and examined parameters of cardiac structure and function at 20 weeks of age, after 4 weeks treatment. […] Lmna^H222P/H222P mice also have depressed cardiac contractility, with fractional shortening (FS) decreased by 20%-40% compared to Lmna^+/+ mice (13,15). Myocardial fibrosis occurs in Lmna^H222P/H222P mice at 16 weeks of age (16). At 20 weeks, LVEDD and LVESD increase further in Lmna^H222P/H222P mice and cardiac contractility also progressively deteriorates (16). During the 4-week treatment protocol, 6 mice in the DMSO group, 3 in the PD98059 group and 3 in the SP600125 group died prior to reaching 20 weeks of age for evaluation.

[3] = 3 mg/kg/day from 16 to 20 weeks of age
[4] = treated 8 to 16 weeks of age, 3 mg/kg/day i.p.
[5] = 20 weeks of age, 3 mg/kg/day i.p. from 16 to 20 weeks
[6] = 20 weeks of age, 3 mg/kg/day i.p. from 16 to 20 weeks, means ± SEM
[7] = Lmna^H222P/H222P mice at 20 weeks of age, treated from 16 to 20 weeks, means ± SEM
[8] = Lmna^H222P/H222P mice at 20 weeks of age, treated from 16 to 20 weeks, means ± standard deviations
[9] = Lmna^H222P/H222P mice at 20 weeks of age, treated from 16 to 20 weeks

| SMILES | phosphorylation of ERK1/2 in hearts [1, 3] | phosphorylation of ERK1/2 in hearts ([1]; pilot study, 24 week-old mice treated from 19 weeks) | phosphorylation of ERK1/2 in hearts [1, 4] | LVEDD compared to DMSO-treated mice [2, 5] | increase of EF compared to the DMSO-treated group [2, 5] | LVESD compared to DMSO-treated mice [2, 5] | EF [2, 6] | FS and EF ([2]; 20 weeks of age) | EF [2, 7] [%] | FS [2, 7] [%] | LVEDD [2, 7] [mm] | LVESD [2, 7] [mm] | EF [2, 8] [%] | FS [2, 8] [%] | IVSD [2, 8] [mm] | LVEDD [2, 8] [mm] | LVESD [2, 8] [mm] | LVPW [2, 8] [mm] | HR [2, 9] [beats per minute] | further deterioration in cardiac function [2] |
| --- | --- | --- | --- | --- | --- | --- | --- | --- | --- | --- | --- | --- | --- | --- | --- | --- | --- | --- | --- | --- |
| COc1cccc(-c2cc(=O)c3ccccc3o2)c1N [PD98059, 2-(2-amino-3-methoxyphenyl)-4H-1-benzopyran-4-one] | partially blocked | partially blocked | inhibited | not significantly different | approximately 22% | significantly smaller; also recorded: statistically significant reduction | 65.46%±2.64% | increased | 65.46 ± 2.64 | 35.91 ± 1.88 | 3.55 ± 0.11 | 2.41 ± 0.11 | 65.46 ± 11.49 | 35.91 ± 8.21 | 0.66 ± 0.05 | 3.55 ± 0.50 | 2.41 ± 0.50 | 0.69 ± 0.08 | 350 | prevented further deterioration |
| O=C1c2ccccc2-c2n[nH]c3cccc1c23 [SP600125, anthra[1,9-cd]pyrazol-6(2H)-one] | not significantly inhibited |  | did not block | not significantly different |  | significantly smaller; also recorded: statistically significant reduction | 61.88%±1.66% | increased | 61.88 ± 1.66 | 33.11 ± 1.16 | 3.73 ± 0.08 | 2.67 ± 0.10 | 61.88 ± 8.46 | 33.11 ± 5.92 | 0.63 ± 0.07 | 3.73 ± 0.42 | 2.67 ± 0.49 | 0.66 ± 0.09 | 363 | prevented further deterioration |
